Source: patent US7732398B2, “Medicinal uses of mu-opioid receptor agonists” (Cornell Research Foundation, Inc., priority 2000, dated 2010)
“And” between values parts separate entries of the source, which are not always exact repeats. Identical values can stand only once. Marks after values point to notes of the source that are not given here.

Experiments:
[1] = system: Male Sprague-Dawley rats; assay: Rat tail-flick test, antinociceptive effects after intrathecal administration; format: in vivo; conditions: for time for which tail-flick latencies were significantly greater than baseline: 3 times ED50, direct percutaneous intrathecal injection, n=8; for Response Latencies: 3 times ED50 intrathecal, at peak analgesia; for Potency Ratios: antinociceptive potency relative to intrathecal morphine (=1); for EDT50: cumulative dose-response, quantal tail-flick test, n=10; for Baseline Latencies: tail-flick latency prior to the administration of any drug, n=4
Protocol: Male Sprague-Dawley rats (300-350 g) were used.
Under light halothane anesthesia a needle connected to a Hamilton syringe was inserted percutaneously between spinal processes of the third and fourth lumbar vertebrae into the intrathecal space. A quick flick of the tail was observed when the tip of the needle entered the intrathecal space and was used as an indicator of successful puncture (Mestre et al., 1994). Drugs were delivered in a volume of 5 μl.
Intrathecal catheterization was performed at least two days prior to the experiment as previously described (Shimoyama et al., 1996). Briefly, under halothane anesthesia, a PE-10 tube was inserted through a small hole made in the atlanto-occipital membrane and threaded 8.5 cm down the intrathecal space to the lumbosacral level of the spinal cord. Drugs were delivered via the catheter in a volume of 5 μl, followed by 10 μl saline to flush the catheter.
To assess the antinociceptive effects of the opioids, the tail-flick test was used. Radiant heat was applied to the tail at 5-8 cm from the tip using a tail-flick apparatus (IITC, Woodland Hills, Calif.). The time from the onset of the heat to the withdrawal of the tail (tail-flick latency) was measured. The intensity of the radiant heat was adjusted so that baseline latencies would fall between 2.5 and 3.5 seconds. To avoid tissue damage the heat stimulus was discontinued after seven seconds. A baseline latency was obtained for each animal prior to the administration of any drug. Subsequent response latencies were determined at designated time points. Analgesic testing was performed by a blinded investigator.
Cumulative dose-response studies were performed for each drug using the tail-flick test (Shimoyama et al., 1996), (Shimoyama et al., 1997). Each drug was tested in a group of ten rats. After measuring the baseline latencies, increasing doses of each drug were administered via an intrathecal catheter until each animal in the group became an analgesic responder. An analgesic responder was defined as one whose response tail-flick latency was two or more times the value of the baseline latency. The response latency after each dosing was determined at peak analgesia, which was 15, 30 and 45 min after the administration of the MOR, DALDA and [Dmt^1]DALDA, respectively (based on preliminary studies). Any subsequent dosing was performed immediately after the determination of response latency. The percentage of analgesic responders in the group of rats for each cumulative dose was calculated, and a cumulative dose-response curve was constructed. The dose-response data were analyzed by the BLISS-21 computer program. This program maximized the log-likelihood function to fit a parallel set of gaussian normal sigmoid curves to the dose-response data and provides ED50 values, 95% confidence interval (CI) and relative potency estimates (Umans and Inturrisi, 1981).
The effect of naloxone on the antinociceptive effects of intrathecal MOR, DALDA and [Dmt^1]DALDA was examined. An equipotent dose (3 times the ED50 value determined in Study 1) of MOR, DALDA or [Dmt^1]DALDA was given via an intrathecal catheter. Tail-flick latencies were measured prior to the administration of any drug and at the time of peak analgesia for each compound (at 15, 30 and 45 minutes after administration, for MOR, DALDA and [Dmt^1]DALDA, respectively). Naloxone hydrochloride at a dose of 82.5 nmol or saline was administered via the intrathecal catheter 10 minutes prior to the second tail-flick testing. Four rats were tested for each combination of drugs. Data were analyzed using the paired t-test.
A dose 3 times the ED50 value of MOR, DALDA, or [Dmt^1]DALDA was administered intrathecally. Tail-flick latencies were measured prior to the administration of any drug (=baseline latency) and at the time of peak analgesia (=response latency). […]

[2] = system: Male Sprague-Dawley rats; assay: Respiratory effects: minute ventilation (VE) under 5% CO2 challenge, whole body plethysmography; format: in vivo, rat; conditions: for minimum VE compared with saline group: intrathecal
Protocol: The effects of each drug on minute ventilation (VE) under 5% CO2 challenge were evaluated using whole body plethysmography (Tatsumi et al., 1991). An unrestrained rat was placed in a 3-liter whole-body plethysmograph chamber. After a 15-min acclimation period, a gas mixture of 5% CO2 and 21% O2 in N2 (100% humidified) was supplied into and out of the chamber at a rate of 1000 ml/min, and the animal was allowed to breathe the gas mixture for 5 minutes. After a steady-state ventilatory condition had been reached, with the animal awake and quiet, the inlet and outlet of the chamber were closed and the pressure changes in the box (due to the warming and wetting of the gas inspired by the rat and the cooling and drying of the expired gas) were recorded using a high-gain differential pressure transducer. A calibration volume of 0.2 ml of air was regularly introduced into the chamber during the recordings. The recordings were made for 20 to 30 seconds. Tidal volumes were calculated from the pressure changes using the equation derived by Drorbaugh and Fenn (1955). Respiratory frequencies were determined from the number of respiratory cycles in the recordings and VE values were calculated (tidal volume×frequency).
Rats were randomly assigned to one of 7 groups. The number of rats in each group was 6 to 10. The animals of each group were given 3 times (lower dose) or 30 times (higher dose) the ED50 value (antinociceptive) of MOR, DALDA or [Dmt^1]DALDA, or saline by direct percutaneous intrathecal injection. VE under 5% CO2 challenge was determined prior to and every hour up to 10 hours after the administration of the drug. VE values were expressed as a percentage of the baseline VE value obtained prior to the administration of any drug. The smallest VE value obtained after the administration of a drug (minimum V E) was determined for each animal. Mean values of the minimum V E for animals of each group were compared using the one-way analysis of variance followed by the Dunnett's test. For each animal, respiratory depression was defined as a minimum VE value that is below two standard deviations of the mean (mean−2×SD) of the saline group.
A minimum VE value (see Materials and Methods) less than the mean−(2×S.D.) of the minimum VE value of the saline group was considered a “low minimum VE”.

[3] = system: Male Sprague-Dawley rats; assay: Behavioral effects after intrathecal administration; format: in vivo, rat; conditions: for rigidity of the caudal part of the body: higher dose (30 times ED50)
From the text: However, they retained their righting reflex.

[4] = naloxone hydrochloride 82.5 nmol intrathecal 10 min prior to measurement
[5] = high dose (30 times antinociceptive ED50)
[6] = higher dose, 30 times ED50 (Morphine 100 nmol of 10 rats, DALDA 7 nmol of 8, [Dmt1]DALDA 34 pmol of 7)
[7] = low dose (3 times antinociceptive ED50)
[8] = lower dose, 3 times ED50 (Morphine 10 nmol, DALDA 0.7 nmol, [Dmt1]DALDA 3.4 pmol), 6 rats per group

Row | SMILES | time for which tail-flick latencies were significantly greater than baseline [1] [h] | Response Latencies [1, 4] | Response Latencies ([1]; saline 10 min prior to measurement, cut-off 7 s, listed as DALDA + saline) | Potency Ratios [1] | EDT50 ([1]; intrathecal) [pmol] | Baseline Latencies [1] [s] | minimum VE ([2]; four rats of the higher dose DALDA group) | minimum VE compared with saline group [2, 5] | Time of Occurrence of Low Minimum VE ([2]; higher dose, 30 times ED50) | No. of Rats with Low Minimum VE [2, 6] | minimum VE compared with saline group [2, 7] | Time of Occurrence of Low Minimum VE ([2]; lower dose, 3 times ED50) | No. of Rats with Low Minimum VE [2, 8] | rigidity of the caudal part of the body [3] | sedative effects ([3]; higher dose, coincided with respiratory depression) | Response Latencies ([1]; saline 10 min prior to measurement, cut-off 7 s, listed as MOR + saline) | No. of Rats with Low Minimum VE ([2]; lower dose, 3 times ED50 (Morphine 10 nmol, DALDA 0.7 nmol, [Dmt1]DALDA 3.4 pmol), 6 rats per group, listed as MOR) | Response Latencies ([1]; saline 10 min prior to measurement, cut-off 7 s, listed as [Dmt^1]DALDA + saline) | potency relative to DALDA in the rat tail flick test ([1]; after intrathecal administration) [fold] | effect of added yohimbine (100 μg) on the antinociceptive effect ([1]; intrathecal, [Dmt1]DALDA 1.1 pmol or DALDA 240 pmol with yohimbine)
1 | NCCCC[C@H](NC(=O)[C@H](Cc1ccccc1)NC(=O)[C@@H](CCCN=C(N)N)NC(=O)[C@@H](N)Cc1ccc(O)cc1)C(N)=O [DALDA, H-Tyr-D-Arg-Phe-Lys-NH2] | 7 | not different from baseline values | ≥ 7 (cut-off latency)* s | 14 and 14.1 | 237 | 2.63 ± 0.15 | less than 60 % of baseline | significantly lower minimum VE | 3-5 h after administration | 4 | significantly lower minimum VE | 3-5 h after administration | 4 | Rigidity of the caudal part of the body was observed in each animal | showed sedative effects |  |  |  |  | 
2 | CN1CC[C@]23c4c5ccc(O)c4O[C@H]2[C@@H](O)C=C[C@H]3[C@H]1C5 [Morphine, morphine, reference compound] | 3 | not different from baseline values |  |  | 3330 | 2.78 ± 0.50 |  | significantly lower | 3-5 h after administration | 4 |  | 4 h after administration | 1 | Rigidity of the caudal part of the body was observed in each animal |  | ≥ 7 (cut-off latency)* s | one |  |  | 
3 | Cc1cc(O)cc(C)c1C[C@H](N)C(=O)N[C@H](CCCNC(=N)N)C(=O)N[C@@H](Cc1ccccc1)C(=O)N[C@@H](CCCCN)C(N)=O [[Dmt^1]DALDA, 2′,6′-dimethyl-Tyr-D-Arg-Phe-Lys-NH2] | 13 | not different from baseline values |  | 3000 and 3160 | 1.06 | 2.83 ± 0.17 |  | not different | 3 h after administration |  | not different |  |  | Rigidity of the caudal part of the body was observed in each animal |  |  |  | ≥ 7 (cut-off latency)* s | 200 | significantly attenuated
